Read-outs that look alike come from different tables or passages of the source.

The source of these data is patent US20210047278A1, “E3 UBIQUITIN LIGASE AGONISTS, PHARMACEUTICAL COMPOSITIONS INCLUDING THE E3 UBIQUITIN LIGASE AGONISTS, RELATED METHODS OF USE” (FRED HUTCHINSON CANCER RESEARCH CENTER, priority 2018, published 2021).

Common to all, as to format: binding
One experiment has as its target T1, FBW7^ARG+pCycE (Homo sapiens, UniProt Q969H0, R505L).
T1 construct: GST (TEV site and flexible linker) (N, cleaved yes); made in house; host or cells: SF9 insect cells (baculovirus)
The experiment is described as follows: FBW7^ARG-cyclin E agonist ALPHAscreen (primary PRUN, confirmation CRUN1, dose-response DRUN). The conditions noted are these: for EC50 / Emax: DRUN dose-response; for Emax: relative to WT-FBW7+pCycE, read-out: FBW7 ACT Averaged Max % Response. The procedure, abridged: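 ALPHAscreen agonist assay: His-tagged FBW7 R505L on Ni-chelate acceptor beads (25 nM FBW7, 25 nM biotinylated phospho-cyclin E peptide, 10 µg/ml beads), streptavidin donor beads, ALPHA signal read. Primary and confirmation runs at 26.1 μM; dose-response as 10-point 3-fold series to ~87 μM, in triplicate; activation relative to WT-FBW7+pCycE.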

The subject of another experiment is pCycE alone. Put plainly: Counterscreen 2 ALPHAscreen with cyclin E phosphopeptide alone (CSRUN2/DCSRUN2). The conditions noted are these: for CyCEP ACT DCSRUN2 Averaged Max % Response: activation relative to WT-FBW7+pCycE, averaged maximum; for EC50: dose-response, triplicate, 10 point 3-fold dilutional series, read-out: CyCEP ACT DCSRUN2 Final EC50. The procedure, abridged: (§1)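 ALPHAscreen counterscreens, read on ENVISION, omitting either FBW7^ARG or the phosphorylated cyclin E peptide to flag general ALPHAscreen agonists. Compounds tested in triplicate as 10-point 3-fold dilutions up to approximately 87 μM. Activation expressed relative to WT-FBW7+pCycE, with 10% set as positive.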

Another experiment has as its target T2, FBW7^ARG (RLFBW7) alone (Homo sapiens, UniProt Q969H0, R505L).
T2 construct: GST (TEV site and flexible linker) (N, cleaved yes); made in house; host or cells: SF9 insect cells (baculovirus)
Put plainly: Counterscreen 1 ALPHAscreen with FBW7^ARG alone (CSRUN1/DCSRUN1). The conditions noted are these: dose-response counterscreen; for Emax: read-out: RLFBW7 ACT DCSRUN1 Averaged Max % Response. The procedure, abridged:
as §1

Setting [1] is: raw curve fit, read-out: FBW7 ACT EC50 Curve Fit Raw, Molar.
Setting [2] is: triplicate, 10 point 3-fold dilution, max approx. 87 μM, read-out: FBW7 ACT Final EC50, Molar.
Where [3] appears, read: confirmation assay, triplicate, single concentration 26.1 μM, read-out: FBW7 ACT CRUN1 Avg % Response and Stdev.
[4] abbreviates: primary screen, 1536-well, 26.1 μM, FBW7^ARG + pCycE degron peptide, high control wt-FBW7+pCycE, read-out: FBW7 ACT PRUN % Response.
The mark [5] stands for this setting: raw curve fit, read-out: RLFBW7 ACT DCSRUN1 EC50 Curve Fit Raw.
Setting [6] is: read-out: RLFBW7 ACT DCSRUN1 Final EC50.

T1 sequence (Q969H0 64-707 R505L): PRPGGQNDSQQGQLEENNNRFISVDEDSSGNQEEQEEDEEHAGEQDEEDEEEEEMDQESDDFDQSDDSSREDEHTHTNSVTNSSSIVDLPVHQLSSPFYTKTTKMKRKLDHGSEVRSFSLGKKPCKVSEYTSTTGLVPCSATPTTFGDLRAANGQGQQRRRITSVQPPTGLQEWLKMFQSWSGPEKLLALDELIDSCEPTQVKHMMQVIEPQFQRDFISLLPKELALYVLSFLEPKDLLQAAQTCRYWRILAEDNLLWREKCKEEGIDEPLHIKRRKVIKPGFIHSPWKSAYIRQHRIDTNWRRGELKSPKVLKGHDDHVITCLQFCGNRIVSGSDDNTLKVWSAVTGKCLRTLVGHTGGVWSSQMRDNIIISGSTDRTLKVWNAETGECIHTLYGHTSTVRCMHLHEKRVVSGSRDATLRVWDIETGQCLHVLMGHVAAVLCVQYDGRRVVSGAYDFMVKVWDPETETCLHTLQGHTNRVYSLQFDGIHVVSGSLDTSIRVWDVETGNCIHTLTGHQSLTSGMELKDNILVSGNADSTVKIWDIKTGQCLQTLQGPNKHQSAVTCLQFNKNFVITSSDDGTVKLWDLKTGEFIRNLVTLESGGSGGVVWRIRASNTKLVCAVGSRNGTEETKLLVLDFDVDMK
T1 sequence (P63208 2-163 partner): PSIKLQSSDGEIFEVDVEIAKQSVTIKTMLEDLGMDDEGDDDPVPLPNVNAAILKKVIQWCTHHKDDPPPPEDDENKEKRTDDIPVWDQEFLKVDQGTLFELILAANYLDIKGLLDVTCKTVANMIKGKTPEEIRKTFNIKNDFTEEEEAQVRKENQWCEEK
T2 sequence (Q969H0 64-707 R505L): as the sequence (Q969H0 64-707 R505L) above
T2 sequence (P63208 2-163 partner): as the sequence (P63208 2-163 partner) above

As for `CC1=C(C(=O)OC2CCCCC2)C(c2ccc(F)cc2)C2=C(CC(c3ccccc3)CC2=O)N1` (stereo not drawn) [SR-01000420805-1], the EC50 is 18.2 µM at FBW7^ARG+pCycE (setting [1]); more than 50.8 µM on FBW7^ARG+pCycE (setting [2]); more than 50.8 µM in the experiment on pCycE alone; 20.2 µM on FBW7^ARG (RLFBW7) alone (setting [5]); more than 50.8 µM at FBW7^ARG (RLFBW7) alone (setting [6]). For the same compound, the Emax on FBW7^ARG+pCycE amounted to 10%; at FBW7^ARG (RLFBW7) alone it was 3.33%. Moreover, the activation at 26.1 µM at FBW7^ARG+pCycE (setting [3]) was found to be 6.77 ± 1.17%; on FBW7^ARG+pCycE (setting [4]) it was 1.92%. The “CyCEP ACT DCSRUN2 Averaged Max % Response” value in the experiment on pCycE alone was 0.22%.

Regarding `CCN(CC)c1ccc2cc(-c3ccccn3)c(=O)oc2c1` [SR-01000033354-1], the EC50 at FBW7^ARG+pCycE (setting [1]) was 24.5 µM; on FBW7^ARG+pCycE (setting [2]), more than 70.9 µM; in the experiment with pCycE alone it was more than 70.9 µM; on FBW7^ARG (RLFBW7) alone (setting [5]), 19.4 µM; on FBW7^ARG (RLFBW7) alone (setting [6]), more than 70.9 µM. The Emax at FBW7^ARG+pCycE was found to be 21.9%; on FBW7^ARG (RLFBW7) alone, 12%. In addition, the activation at 26.1 µM was 3.34 ± 0.7% at FBW7^ARG+pCycE (setting [3]) and 2.67% at FBW7^ARG+pCycE (setting [4]). Besides, the “CyCEP ACT DCSRUN2 Averaged Max % Response” value with pCycE alone amounted to 0.43%.

As to `CC(=O)NCC(c1cccs1)S(=O)(=O)c1ccc(C)cc1` (stereo not drawn) [SR-01000023077-1], the EC50 at FBW7^ARG+pCycE (setting [1]) was 15.3 µM; on FBW7^ARG+pCycE (setting [2]), more than 64.6 µM; in the experiment with pCycE alone, more than 64.6 µM; at FBW7^ARG (RLFBW7) alone (setting [5]), 33.3 µM; on FBW7^ARG (RLFBW7) alone (setting [6]), more than 64.6 µM. Further, the Emax on FBW7^ARG+pCycE amounted to 18.4%; on FBW7^ARG (RLFBW7) alone it was 0.39%. In addition, the activation at 26.1 µM came to 2.46 ± 0.31% at FBW7^ARG+pCycE (setting [3]) and 1.85% at FBW7^ARG+pCycE (setting [4]). Moreover, the “CyCEP ACT DCSRUN2 Averaged Max % Response” value in the experiment on pCycE alone came to 0.18%.

Turning to `O=C(Cc1ccc(Br)cc1)N1CCC(c2nc(O)c3cnccc3n2)C1.O=C(O)C(F)(F)F` (stereo not drawn) [SR-00000005455-1], the EC50 on FBW7^ARG+pCycE (setting [1]) was 30.2 µM; at FBW7^ARG+pCycE (setting [2]), more than 65.3 µM; in the experiment with pCycE alone, more than 65.3 µM; at FBW7^ARG (RLFBW7) alone (setting [5]) it was 0.0129 µM; at FBW7^ARG (RLFBW7) alone (setting [6]) it was more than 65.3 µM. Further, the Emax on FBW7^ARG+pCycE was determined as 24.7%; on FBW7^ARG (RLFBW7) alone, 0.43%. Besides, the figures for the activation at 26.1 µM on FBW7^ARG+pCycE (setting [3]) and on FBW7^ARG+pCycE (setting [4]) were 4.65 ± 0.38% and 2.32%, respectively. Further, the “CyCEP ACT DCSRUN2 Averaged Max % Response” value with pCycE alone was 0.31%.

Turning to `C/C(=N\Nc1cccc(C(F)(F)F)c1)C1CC1` [SR-01000041073-1], the EC50 on FBW7^ARG+pCycE (setting [1]) was 15.5 µM; on FBW7^ARG+pCycE (setting [2]) it was more than 75.4 µM; in the experiment on pCycE alone, more than 75.4 µM; at FBW7^ARG (RLFBW7) alone (setting [5]) it was 42.4 µM; at FBW7^ARG (RLFBW7) alone (setting [6]) it was 39.8 µM. Further, the Emax on FBW7^ARG+pCycE turned out to be 26.6%; at FBW7^ARG (RLFBW7) alone, 101%. The activation at 26.1 µM is 10.7 ± 0.12% at FBW7^ARG+pCycE (setting [3]) and 3.41% at FBW7^ARG+pCycE (setting [4]). In the experiment with pCycE alone, the “CyCEP ACT DCSRUN2 Averaged Max % Response” value was determined as 0.22%. At FBW7^ARG (RLFBW7) alone, the “RLFBW7 ACT DCSRUN1 Hill Slope” value is reported as 3.57.

With `COc1cccc(/C=N/c2ccc3[nH]ncc3c2)c1O` [SR-01000359514-1], the EC50 at FBW7^ARG+pCycE (setting [1]) is 21.1 µM; at FBW7^ARG+pCycE (setting [2]) it was more than 65.3 µM; in the experiment on pCycE alone, more than 65.3 µM; at FBW7^ARG (RLFBW7) alone (setting [5]), 23.7 µM; on FBW7^ARG (RLFBW7) alone (setting [6]), more than 65.3 µM. Further, the figures for the Emax at FBW7^ARG+pCycE and on FBW7^ARG (RLFBW7) alone were 15.2% and 0.39%, respectively. Further, the activation at 26.1 µM at FBW7^ARG+pCycE (setting [3]) stood at 2.38 ± 0.5%; on FBW7^ARG+pCycE (setting [4]), 6.3%. For the same compound, the “CyCEP ACT DCSRUN2 Averaged Max % Response” value in the experiment on pCycE alone amounted to 0.13%.

With `CCCOc1ccc(C2C(C(=O)OC)=CN(CCOC)C=C2C(=O)OC)cc1` [SR-01000259436-1], the EC50 was 21.9 µM on FBW7^ARG+pCycE (setting [1]); more than 65.3 µM on FBW7^ARG+pCycE (setting [2]); more than 65.3 µM in the experiment with pCycE alone; 19 µM on FBW7^ARG (RLFBW7) alone (setting [5]); more than 65.3 µM on FBW7^ARG (RLFBW7) alone (setting [6]). For the same compound, the Emax stood at 10.7% on FBW7^ARG+pCycE and 5.19% at FBW7^ARG (RLFBW7) alone. The figures for the activation at 26.1 µM on FBW7^ARG+pCycE (setting [3]) and at FBW7^ARG+pCycE (setting [4]) were 2.9 ± 0.27% and 2.13%, respectively. For the same compound, the “CyCEP ACT DCSRUN2 Averaged Max % Response” value in the experiment with pCycE alone was found to be 0.31%.

In the case of `CC(C)(C)OC(=O)N/N=C\c1cccs1` [SR-01000110457-1], the EC50 was 1.4 µM on FBW7^ARG+pCycE (setting [1]); more than 65.3 µM on FBW7^ARG+pCycE (setting [2]); more than 65.3 µM in the experiment on pCycE alone; 0.823 µM on FBW7^ARG (RLFBW7) alone (setting [5]); more than 65.3 µM on FBW7^ARG (RLFBW7) alone (setting [6]). Besides, the Emax came to 6.03% on FBW7^ARG+pCycE and 1.17% at FBW7^ARG (RLFBW7) alone. The activation at 26.1 µM amounted to 2.27 ± 0.05% on FBW7^ARG+pCycE (setting [3]) and 5.59% on FBW7^ARG+pCycE (setting [4]). In the experiment on pCycE alone, the “CyCEP ACT DCSRUN2 Averaged Max % Response” value is given as 0.10%.
